pIC50: −log10 of the molar value.
What was measured:
[1] = molecular target: Replicase polyprotein 1ab (Severe acute respiratory syndrome coronavirus 2) (UniProt P0DTD1); assay: Inhibition of SARS-Cov-2 main protease using fluorogenic substrate [5-FAM]-AVLQSGFR-[Lys(Dabcyl)]-K-amide by fluorogenic assay relative to control
[2] = molecular target: Replicase polyprotein 1ab (Severe acute respiratory syndrome coronavirus 2, UniProt P0DTD1); assay: Inhibition of SARS-Cov-2 main protease using fluorogenic substrate [5-FAM]-AVLQSGFR-[Lys(Dabcyl)]-K-amide by fluorogenic assay

SMILES	inhibition [1]	pIC50 [2]
Nc1ncc(C(F)(F)F)cc1Cl	35%	
NCCc1ccc(C(F)F)cc1		7.30
NCCc1cccc(Cl)c1		7.28
